Toxic doses and inconclusive results are not listed.
Tested on: B6C3F1 mice, Lewis lung carcinoma iv, survival T/C
Experiment: NCI In Vivo Anticancer Drug Screen. Data for tumor model Lewis Lung Carcinoma (intravenous) in B6C3F1 mice
Conditions: endpoint: median survival time, higher = longer survival
Procedure: The antitumor activity of compounds was measured in mice bearing transplantable tumors. Survival or tumor size were measured and the results are expressed as the measurement made in the treated group (T) divided by the measurement made in the vehicle treated control group (C). The tumor model used in this assay is Lewis Lung Carcinoma (intravenous) in B6C3F1 mice

[1] = dose: 12.5 mg/kg/injection, schedule: Q01DX009 (ip), vehicle: saline with Tween-80
[2] = dose: 25.0 mg/kg/injection, schedule: Q01DX009 (ip), vehicle: saline with Tween-80
[3] = dose: 12.5 mg/kg/injection, schedule: Q01DX009 (ip), vehicle: Klucel (hydroxypropylcellulose) (HPC)
[4] = dose: 25.0 mg/kg/injection, schedule: Q01DX009 (ip), vehicle: Klucel (hydroxypropylcellulose) (HPC)
[5] = dose: 50.0 mg/kg/injection, schedule: Q01DX009 (ip), vehicle: Klucel (hydroxypropylcellulose) (HPC)
[6] = dose: 100.0 mg/kg/injection, schedule: Q01DX009 (ip), vehicle: Klucel (hydroxypropylcellulose) (HPC)
[7] = dose: 200.0 mg/kg/injection, schedule: Q01DX009 (ip), vehicle: Klucel (hydroxypropylcellulose) (HPC)
[8] = dose: 400.0 mg/kg/injection, schedule: Q01DX009 (ip), vehicle: Klucel (hydroxypropylcellulose) (HPC)
[9] = dose: 0.5 mg/kg/injection, schedule: Q01DX009 (ip), vehicle: saline

## BrC[P+](CBr)(CBr)CBr
[1]
  T/C: 93 % of control
[2]
  T/C: 102 % of control
dose: 50.0 mg/kg/injection, schedule: Q01DX009 (ip), vehicle: saline with Tween-80
  T/C: 97 % of control
dose: 100.0 mg/kg/injection, schedule: Q01DX009 (ip), vehicle: saline with Tween-80
  T/C: 97 % of control
dose: 200.0 mg/kg/injection, schedule: Q01DX009 (ip), vehicle: saline with Tween-80
  T/C: 89 % of control
dose: 400.0 mg/kg/injection, schedule: Q01DX009 (ip), vehicle: saline with Tween-80
  T/C: 95 % of control

## CC1CCC(n2cnc3c(Cl)ncnc32)O1 (configuration not stated)
[3]
  T/C: 91 % of control
[4]
  T/C: 107 % of control
[5]
  T/C: 107 % of control
[6]
  T/C: 108 % of control
[7]
  T/C: 113 % of control
[8]
  T/C: 108 % of control

## CN=C(NC#N)NCCSCc1nc[nH]c1C
dose: 12.0 mg/kg/injection, schedule: Q01DX009 (ip), vehicle: Klucel (hydroxypropylcellulose) (HPC)
  T/C: 104 % of control
[4]
  T/C: 100 % of control
[5]
  T/C: 103 % of control
[6]
  T/C: 99 % of control
[7]
  T/C: 105 % of control
[8]
  T/C: 95 % of control

## O=NN(CCF)C(=O)NC1CCC(=O)NC1=O (configuration not stated)
dose: 2.5 mg/kg/injection, schedule: Q01DX009 (ip), vehicle: saline
  T/C: 118 % of control
dose: 10.0 mg/kg/injection, schedule: Q01DX009 (ip), vehicle: saline
  T/C: 166 % of control
dose: 20.0 mg/kg/injection, schedule: Q01DX009 (ip), vehicle: saline
  T/C: 312 % of control

## CCCCCCCCCCCCCCC/C([O-])=N/[N+](C)(C)CC(C)O (configuration not stated)
dose: 25.0 mg/kg/injection, schedule: Q01DX001 (ip), vehicle: saline
  T/C: 91 % of control
dose: 50.0 mg/kg/injection, schedule: Q01DX001 (ip), vehicle: saline
  T/C: 88 % of control
dose: 100.0 mg/kg/injection, schedule: Q01DX001 (ip), vehicle: saline
  T/C: 87 % of control
dose: 200.0 mg/kg/injection, schedule: Q01DX001 (ip), vehicle: saline
  T/C: 95 % of control

## Nc1nc(=S)c2[nH]cnc2[nH]1
[9]
  T/C: 104 % of control
dose: 2.0 mg/kg/injection, schedule: Q01DX009 (ip), vehicle: saline
  T/C: 114 % of control

## CCCCCNc1ncnc2c(C)[nH]nc12
[4]
  T/C: 103 % of control
[5]
  T/C: 94 % of control
[6]
  T/C: 108 % of control

## COc1cccc2c1C(=O)c1c(O)c3c(c(O)c1C2=O)C[C@@](O)(C(C)=O)C[C@@H]3OC1CC(N)C(O)C(C)O1 (some centres not stated)
dose: 0.25 mg/kg/injection, schedule: Q01DX009 (ip), vehicle: saline
  T/C: 86 % of control
[9]
  T/C: 123 % of control
dose: 1.0 mg/kg/injection, schedule: Q01DX009 (ip), vehicle: saline
  T/C: 112 % of control

## NC(=O)NO
dose: 50.0 mg/kg/injection, schedule: Q01DX009 (ip), vehicle: saline
  T/C: 94 % of control
dose: 100.0 mg/kg/injection, schedule: Q01DX009 (ip), vehicle: saline
  T/C: 98 % of control
dose: 200.0 mg/kg/injection, schedule: Q01DX009 (ip), vehicle: saline
  T/C: 96 % of control

## NC(=S)c1cn(C2OC(CO)C(O)C2O)c2ncnc(N)c12 (configuration not stated)
dose: 0.62 mg/kg/injection, schedule: Q01DX009 (ip), vehicle: suspension in saline
  T/C: 100 % of control
dose: 1.25 mg/kg/injection, schedule: Q01DX009 (ip), vehicle: suspension in saline
  T/C: 90 % of control
dose: 2.5 mg/kg/injection, schedule: Q01DX009 (ip), vehicle: suspension in saline
  T/C: 99 % of control
dose: 5.0 mg/kg/injection, schedule: Q01DX009 (ip), vehicle: suspension in saline
  T/C: 94 % of control

## O=NN(CCCl)C(=O)Oc1cc(Cl)c(Cl)cc1Cl
dose: 11.56 mg/kg/injection, schedule: Q01DX009 (ip), vehicle: Klucel (hydroxypropylcellulose) (HPC)
  T/C: 105 % of control
dose: 23.13 mg/kg/injection, schedule: Q01DX009 (ip), vehicle: Klucel (hydroxypropylcellulose) (HPC)
  T/C: 101 % of control
dose: 46.25 mg/kg/injection, schedule: Q01DX009 (ip), vehicle: Klucel (hydroxypropylcellulose) (HPC)
  T/C: 122 % of control

## Cc1oc2c(C)c3oc(=O)cc(C)c3cc2c1CCl
[1]
  T/C: 103 % of control
[2]
  T/C: 101 % of control

## NC(CSC(c1ccccc1)(c1ccccc1)c1ccccc1)C(=O)O (configuration not stated)
dose: 3.12 mg/kg/injection, schedule: Q01DX009 (ip), vehicle: Klucel (hydroxypropylcellulose) (HPC)
  T/C: 116 % of control
dose: 6.25 mg/kg/injection, schedule: Q01DX009 (ip), vehicle: Klucel (hydroxypropylcellulose) (HPC)
  T/C: 96 % of control
[3]
  T/C: 111 % of control
[4]
  T/C: 102 % of control
[5]
  T/C: 107 % of control

## CN(N=O)C(N)=O
dose: 3.0 mg/kg/injection, schedule: Q01DX009 (ip), vehicle: saline
  T/C: 123 % of control
dose: 25.0 mg/kg/injection, schedule: Q01DX009 (ip), vehicle: saline
  T/C: 107 % of control

Source: PubChem BioAssay AID276 (DTP/NCI, 2004)
